Earlier results, collected in patent US10603330B2, “Arginase inhibitors as therapeutics” (Mars, Incorporated, priority 2010, dated 2020).

Columns and labels:
[1] = system: bacterial arginase (H. pylori); details: inhibition of bacterial arginase
[2] = system: blood pressure; details: spontaneously hypertensive animals
[3] = system: EAE; details: animals undergoing experimental autoimmune encephalomyelitis
[4] = system: central airways responsiveness; details: murine chronic asthma model

Q: For `NC(=NCCC[C@H](N)C(=O)O)NO` [NOHA], which “CD3 expression on T-cells” value [1] is on record?
A: reestablished CD3 expression on T-cells

Q: With `N=C(NO)NCC[C@H](N)C(=O)O` [nor-NOHA, N^ω-hydroxy-nor-L-arginine] as the compound, how does the blood pressure [2] read?
A: lowered blood pressure

Q: For `NC(CCCCB(O)O)C(=O)O` (stereo not shown) [ABH, amino-6-boronohexanoic acid], which “severity of EAE vs control animals” value [3] is on record?
A: much milder form of EAE

Q: Which “methacholine induced responsiveness of the central airways” value [4] does the source give for `N[C@@H](CSCCB(O)O)C(=O)O` [S-(2-boronoethyl)-L-cysteine] here?
A: attenuated
